Measurements reported in paper PMC8835841, “Novel NK1R-Targeted ^68Ga-/^177Lu-Radioconjugates with Potential Application against Glioblastoma Multiforme: Preliminary Exploration of Structure–Activity Relationships” (International Journal of Molecular Sciences, 2022).
Several values for one entry are separate records, joined by “and”; a condition that tells them apart may be missing. Equal entries are not always repeated. Where two headings read alike, the source gives them in different places. Square brackets hold non-standard residues; d marks the D form. Peptide text beside a SMILES is read from it. * marks the point of attachment. DOTA = O=C(O)CN1CCN(CC(=O)O)CCN(CC(=O)*)CCN(CC(=O)O)CC1; Met(O2) = CS(=O)(=O)CC[C@H](N)C(=O)O; 2Thi = N[C@@H](Cc1cccs1)C(=O)O

Legend:
[1] = test system: hNK1R Q165A mutant; conditions: read-out: IC50 Q165A mutant hNK1R; Gln165Ala mutation; cited from earlier work
[2] = test system: hNK1R His197Ala mutation; conditions: versus wild type; cited from earlier work
[3] = test system: hNK1R His197Phe mutation; conditions: versus wild type; cited from earlier work
[4] = molecular target: T1, hNK1R (Homo sapiens, UniProt P25103); assay: Saturation binding assay of 177Lu-radioconjugates on CHO-NK1R cells; conditions: for Kd: read-out: Kd ± SD
T1 construct: expressed in transfected cells; host or cells: CHO-K1 (hNK1-CHO), gift from Dr. Attila Keresztes and Dr. John M. Streicher
Description: The saturation binding studies of ^177Lu-radioconjugates were performed using transfected CHO-NK1R cell line, and all radioconjugates were obtained according to the common labelling protocol given above with the same specific activity. In brief, 10^5 cells per well were seeded into 24-well plates and incubated 24 h before the experiment. […] After that time, the assay medium was collected into plastic tubes and cells were washed twice with cold Dulbecco’s PBS. Subsequently, cells were lysed using 1M NaOH and collected into plastic tubes for radioactivity measurement. The radioactivity of collected medium and lysed cells was measured using a Wizard^2 2-Detector Gamma Counter (PerkinElmer, Waltham, MA, USA) with the energy window of 50–500 keV. The study data came from three independent experiments carried out in duplicate, while the results, presented as the Kd and BMAX with SD, were calculated using a total and nonspecific binding (one site) nonlinear regression curve fit (GraphPad Prism version 8.0, GraphPad, San Diego, CA, USA).

[5] = physchem; format: physicochemical; conditions: pH 7.4, logD7.4 (Mean ± SD) 177Lu-
Description: A lipophilicity study was also performed right after the SPE method purification and ethanol evaporation. For each DOTA radioconjugate, the lipophilicity value was estimated as the logarithm of the distribution coefficient (D) based on the ratio of the radioactivity of the organic phase to the radioactivity of the aqueous phase in the n-octanol/PBS (pH 7.40) system. Simultaneously, the stability of the studied radioconjugate during the experiment was verified through the HPLC analysis of the aqueous phase.
A solution of isolated radioconjugate (approximately 0.5 MBq for ^177Lu-radioconjugates or 5 MBq for ^68Ga-radioconjugates) in 500 µL of 0.1 M PBS buffer (pH 7.40) and 500 µL of n-octanol was vigorously stirred and centrifuged (13,500 rpm for 5 min) to separate the immiscible phases. Then, the radioactivity of samples from both phases were measured using a well-type NaI(Tl) detector. The distribution coefficient, D, was calculated dividing the radioactivity of the radioconjugate in the organic phase to that in the aqueous phase. Each experiment was performed in triplicate and averaged. In parallel, the aqueous phases were analysed by HPLC to confirm the stability of studied radioconjugate during the experiment period. The lipophilicity value of each radioconjugates was expressed as the logarithm of its D value.

[6] = ratio to [177Lu]Lu-DOTA-[Thi8,Met(O2)11]SP

T1 sequence (P25103 whole entry): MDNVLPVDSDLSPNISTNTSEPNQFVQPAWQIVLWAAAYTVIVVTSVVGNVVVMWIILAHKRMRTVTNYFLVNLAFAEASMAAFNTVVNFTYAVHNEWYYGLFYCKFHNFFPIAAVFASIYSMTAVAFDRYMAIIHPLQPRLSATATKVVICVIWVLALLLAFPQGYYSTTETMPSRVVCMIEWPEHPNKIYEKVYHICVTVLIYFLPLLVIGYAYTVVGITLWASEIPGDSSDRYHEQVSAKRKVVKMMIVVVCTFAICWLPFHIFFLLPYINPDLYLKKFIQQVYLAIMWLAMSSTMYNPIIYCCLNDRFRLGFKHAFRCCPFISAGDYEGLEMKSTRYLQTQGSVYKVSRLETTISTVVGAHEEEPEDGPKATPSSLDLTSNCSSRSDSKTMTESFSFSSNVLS

CC(=O)N[C@@H](Cc1c[nH]c2ccccc12)C(=O)OCc1cc(C(F)(F)F)cc(C(F)(F)F)c1 [Compound 1c, 3,5-bis(trifluoromethyl)benzyl acetyl-L-tryptophanate]
IC50 [1]: 8.1 nM
decrease of affinity with His197Ala mutation [2]: ten-fold
effect of His197Phe mutation on affinity [3]: no effect

O=C(O)CN1CCN(CC(=O)O)CCN(CC(=O)N[C@@H](Cc2c[nH]c3ccccc23)C(=O)OCc2cc(C(F)(F)F)cc(C(F)(F)F)c2)CCN(CC(=O)O)CC1 [[^177Lu]Lu-1d, metal not drawn]
BMAX ± SD ([4]; CHO-NK1R cells, 60 min at 37 °C): 0.762 nM and 0.762 ± 0.046 nM
Kd ([4]; CHO-NK1R cells, 60 min at 37 °C, aprepitant as blocker): 6.98 ± 0.69 nM
BMAX Ratio to SP [4, 6]: 0.82
Kd Ratio to SP [4, 6]: 1.13
logD [5]: 0.4 ± 0.004

C[C@@H](NC(=O)CN1CCN(CC(=O)O)CCN(CC(=O)O)CCN(CC(=O)O)CC1)C(=O)N[C@H](C)C(=O)N[C@@H](Cc1c[nH]c2ccccc12)C(=O)OCc1cc(C(F)(F)F)cc(C(F)(F)F)c1 [[^177Lu]Lu-3d, metal not drawn]
logD [5]: 0.619 ± 0.007

O=C(O)CN1CCN(CC(=O)O)CCN(CC(=O)NCCCCCC(=O)N[C@@H](Cc2c[nH]c3ccccc23)C(=O)OCc2cc(C(F)(F)F)cc(C(F)(F)F)c2)CCN(CC(=O)O)CC1 [[^177Lu]Lu-4d, metal not drawn]
logD [5]: 0.866 ± 0.019

O=C(O)CN1CCN(CC(=O)O)CCN(CC(=O)NCCCCCC(=O)NCCCCCC(=O)N[C@@H](Cc2c[nH]c3ccccc23)C(=O)OCc2cc(C(F)(F)F)cc(C(F)(F)F)c2)CCN(CC(=O)O)CC1 [[^177Lu]Lu-5d, metal not drawn]
logD [5]: 0.294 ± 0.013

CC(C)C[C@H](NC(=O)CNC(=O)[C@H](Cc1cccs1)NC(=O)[C@H](Cc1ccccc1)NC(=O)[C@H](CCC(N)=O)NC(=O)[C@H](CCC(N)=O)NC(=O)[C@@H]1CCCN1C(=O)[C@H](CCCCN)NC(=O)[C@@H]1CCCN1C(=O)[C@H](CCCNC(=N)N)NC(=O)CN1CCN(CC(=O)O)CCN(CC(=O)O)CCN(CC(=O)O)CC1)C(=O)N[C@@H](CCS(C)(=O)=O)C(N)=O [[^177Lu]Lu-DOTA-[Thi^8,Met(O2)^11]SP, metal not drawn, reference compound] ({DOTA}-RPKPQQF[2Thi]GL[Met(O2)]-NH2; N-terminus and C-terminus assumed)
Kd [4]: 6.15 ± 0.64 nM
